Laboratory results: patent publication EP0180416A2, “Benzoic acid analogues and their production” (Takeda Chemical Industries, Ltd., priority 1984, dated 1986)
Counter-ions that a name gives are not always drawn.

What was measured:
[1] = system: synthetic leukotriene D4 (LTD4); assay: Bronchoconstriction due to LTD4 in guinea pigs (Konzett-Rossler method); type: in vivo, Guinea pigs of Hartley strain; settings: Cavia porcellus, 1 h; 50% inhibitory dose; oral, one hour before LTD4 (10 ug/kg i.v.); inhibition of overflow volume at maximal response; anesthetized guinea pigs; read-out: ID50(p.o.)
Experimental: Guinea pigs of Hartley strain, both male and female, with body weights about 400 g were assigned to groups of 6 to 10 individuals, and the bronchoconstriction due to LTD4 was measured according to the method of Konzett-Rossler [Konzett, H. and ROssler, R.: Naunyn-Schmiedebergs Archiv far Experimentelle Pathologie und Pharmakologie 195, 71-74 (1940)]. Each guinea pig was fixed in a supine position under urethane anesthesia (1.5 g/kg, intraperitoneal) and the trachea was incised and connected to an artificial respiration apparatus, Rodent Respirator Model 680 [Harvard Apparatus Company, U.S.A.] via a cannula. The branch tube of this tracheal cannula was connected to a Bronchospasm Transducer Model 7020 [Ugobasil Biological Researach Apparatus, Italy]. Under the conditions of 4 to 7 ml of air per stroke, 70 strokes per minute and a lung loading pressure of 10 cm H2O, the volume of overflowing air was recorded on a Rectigraph-8S (Sanei Sokki Ltd., Japan) via a transducer. After administration of gallamine·triethiodide (1 mg/kg, i.v.), a solution of LTD4 in physiological saline (10 ug/kg) was intravenously administered and the bronchoconstriction elicited thereby was recorded for 15 minutes. The compound was used as suspended in a 5% solution of gum arabic or dissolved in water, and administered orally in a volume of 0.2 ml per 100 g body weight one hour before LTD4 loading. LTD4 was administered through a cannula inserted into the jugular vein. LTD4 was used as dissolved in physiological saline, which was taken from a stock stored in methanol (1 mg/l mℓ methanol) at -70°C.

mice = assay: Acute toxicity in mice; type: in vivo, mice of Jcl:ICR strain; settings: 2000 mg/kg, male mice; for symptoms after oral administration (acute toxicity): suspended in 5% gum arabic; for autopsy findings: oral, autopsy after 7 days
Experimental: Five 5-week-old male mice of Jcl:ICR strain, weighing about 30 g each, were used. Compound (I)-2 or (I)-4 was suspended in a 5% solution of gum arabic and administered orally at the level of 0.2 ml per 10 grams body weight.

Compound	ED50 [1]	symptoms after oral administration (acute toxicity) (mice)	autopsy findings (mice)
CCCc1c(OCCCOc2ccc(C(=O)OCCN(C)C)cc2Br)ccc(C(C)=O)c1O [(I)-1, 2-(N,N-dimethylamino)ethyl 4-[3-(4-acetyl-3-hydroxy-2-propylphenoxy)propoxy]-3-bromobenzoate·hydrochloride·monohydrate]	49 µmol/kg		
CCCc1c(OCCCOc2ccc(C(=O)OCCN3CCOCC3)cc2Br)ccc(C(C)=O)c1O [(I)-2, 2-morpholinoethyl 4-[3-(4-acetyl-3-hydroxy-2-propylphenoxy)propoxy]-3-bromobenzoate]	41 µmol/kg	no symptoms	did not reveal any abnormalities
CCCc1c(OCCCOc2ccc(C(=O)OCCN3CCN(C)CC3)cc2Br)ccc(C(C)=O)c1O [(I)-3, 2-(4-methyl-l-piperazinyl)ethyl 4-[3-(4-acetyl-3-hydroxy-2-propylphenoxy)propoxy]-3-bromobenzoate· dihydrochloride·monohydrate]	49 µmol/kg		
CCCc1c(OCCCOc2ccc(C(=O)OCCCN(C)C)cc2Br)ccc(C(C)=O)c1O [(I)-4, 3-(N,N-dimethylamino)propyl 4-[3-(4-acetyl-3-hydroxy-2-propylphenoxy)propoxy]-3-bromobenzoate]	52 µmol/kg	no symptoms	did not reveal any abnormalities
CCCc1c(OCCCOc2ccc(C(=O)O)cc2Br)ccc(C(C)=O)c1O [Control compound (A), 4-[3-(4-acetyl-3-hydroxy-2-propylphenoxy)propoxy]-3-bromobenzoic acid, reference compound]	146 µmol/kg		
